Results taken from patent publication US20220380341A1, “INHIBITORS OF HIV-1 NEF FOR THE TREATMENT OF HIV DISEASE” (priority 2018, published 2022).
Where two headings read alike, the source gives them in different places.

Columns and labels:
HIV-1 NefNL4-3 = HIV-1 NefNL4-3 (Human immunodeficiency virus type 1 group M subtype B, UniProt P03406, A33V/T15A/T51N/V11I); test: Surface plasmon resonance binding to recombinant full-length Nef (NL4-3); details: for RU30/RUNef (extent of binding): response units at 30 μM relative to Nef immobilized on the SPR chip
TZM-bl cell line = assay type: cell-based
Procedure, shortened: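 Read-out is luciferase from an integrated HIV-1 LTR reporter in TZM-bl cells, 48 h after HIV-1NL4-3 infection in the presence of 1 μM compound. Scale set by DMSO-treated wild-type-infected cells (0%) and Nef-defective virus (100% Nef-dependent effect). Cell Titer Blue measures cytotoxicity without virus.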

HIV-1NL4-3 = test: HIV-1 infectivity assay in TZM-bl reporter cell line (LTR-luciferase, 48 h); assay type: cell-based; details: for inhibition at 1 µM: Human immunodeficiency virus 1, TZM-bl
Procedure, shortened: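 TZM-bl cells infected with HIV-1NL4-3 ± compound (1 μM), luciferase measured at 48 h. Normalization: DMSO/wild-type = 0% inhibition, DMSO/Nef-defective = 100% of Nef-dependent effect.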

[1] = Nef NL4-3 Binding, SPR 2-state fitting KD, Table 1, 2-step induced-fit model
[2] = read-out: Nef NL4-3 Binding, SPR 1:1 or 2-site fitting KD2, Table 1, 2-site fit, second component
[3] = 48 h, Table 1, TZM-bl cells, 1 μM, 48 h, 100% = Nef-defective HIV-1, read-out: HIV-1 Infectivity % Inhibition Norm. to Δ-Nef @ 1 μM
[4] = KD, M, Table 4, SPR fit 2-step induced fit, KD = koff/kon × koff2/(koff2 + kon2)
[5] = Table 4, 2-step induced fit, T = 1/koff2
[6] = 1.0 μM, TZM-bl reporter cell line, Table 4, read-out: % Infectivity Inhibition

Row | SMILES | Kd (HIV-1 NefNL4-3) [nM] | Kd (HIV-1 NefNL4-3; [1]) [nM] | Percent Viability @ 1 μM (TZM-bl cells) (TZM-bl cell line; human, 1 μM) [%] | inhibition at 1 µM (HIV-1NL4-3; [3]) [%] | Kd (HIV-1 NefNL4-3; [4]) [nM] | T, minutes (residence time) (HIV-1 NefNL4-3; [5]) | RU30/RUNef (extent of binding) (HIV-1 NefNL4-3) | % Cell Viability (TZM-bl cell line; human, 1 μM) [%] | inhibition at 1 µM (HIV-1NL4-3; [6]) [%] | further results
1 | CC(C)CS(=O)(=O)N1CCC(c2nn(-c3nc4ccccc4[nH]3)c(O)c2CCc2ccc(F)cc2)CC1 [Compound I-750, 1-(1H-1,3-benzodiazol-2-yl)-4-[2-(4-fluorophenyl)ethyl]-3-[1-(2-methylpropanesulfonyl)piperidin-4-yl]-1H-pyrazol-5-ol] | 0.138 | 1160 | 93.0 | 63.7 |  |  |  |  |  | Kd (HIV-1 NefNL4-3; [2]): 0.572 nM
2 | O=C(c1cccc(O)n1)N1CCC(Cc2nn(-c3nc4ccccc4[nH]3)c(O)c2CCc2ccc(F)cc2)CC1 [Compound I-766, 6-(4-{[1-(1H-1,3-benzodiazol-2-yl)-4-[2-(4-fluorophenyl)ethyl]-5-hydroxy-1H-pyrazol-3-yl]methyl}piperidine-1-carbonyl)pyridin-2-ol] | 481 |  | 99.5 | 46.9 |  |  |  |  |  | 
3 | Oc1c(CCC2CCNCC2)c(C2CC2)nn1-c1nc2cc(Cl)ccc2[nH]1 [Compound I-554, 1-(5-chloro-1H-1,3-benzodiazol-2-yl)-3-cyclopropyl-4-[2-(piperidin-4-yl)ethyl]-1H-pyrazol-5-ol] | 56.2 | 0.00315 | 95.0 | 12.2 | 0.00315 | 3.33E + 06 minutes | 3.65E- 02 | 95.0 | 12.2 | Kd (HIV-1 NefNL4-3; [2]): 2130 nM
4 | O=C1CN(Cc2nn(-c3nc4ccccc4[nH]3)c(O)c2CCc2ccc(F)cc2)CCN1c1ccccc1 [Compound I-155, 4-{[1-(1H-1,3-benzodiazol-2-yl)-4-[2-(4-fluorophenyl)ethyl]-5-hydroxy-1H-pyrazol-3-yl]methyl}-1-phenylpiperazin-2-one] | 3400 |  | 98.2 | -5.9 |  |  |  |  |  | 
5 | CC(C)(C)OC(=O)N1CCC(Cc2nn(-c3nc4ccccc4[nH]3)c(O)c2CCc2ccc(F)cc2)CC1 [Compound I-770] | 1.05 |  | 99.7 | 49.2 |  |  | 3.04E- 03 | 99.7 | 49.2 | Kd (HIV-1 NefNL4-3; KD, M, Table 4, SPR fit 1:1 Langmuir, KD = koff/kon): 1.05 nM; T, minutes (residence time) (HIV-1 NefNL4-3; Table 4, 1:1 Langmuir fit, T = 1/koff): 1.65E + 04 minutes
6 | CC(C)(C)OC(=O)N1CCC(CCc2c(C3CC3)nn(-c3nc4cc(Cl)ccc4[nH]3)c2O)CC1 [Compound I-218, tert-butyl 4-{2-[1-(5-chloro-1H-1,3-benzodiazol-2-yl)-3-cyclopropyl-5-hydroxy-1H-pyrazol-4-yl]ethyl}piperidine-1-carboxylate] | 1120 | 692 | 97.9 | -7 | 692 | 1.02E + 01 minutes | 1.32E- 02 | 97.9 | 0 | 
7 | CC(C)(C)OC(=O)c1ccc(-c2nn(-c3nc4ccccc4[nH]3)c(O)c2CCc2ccc(F)cc2)cc1 [Compound I-208, tert-butyl 4-[1-(1H-1,3-benzodiazol-2-yl)-4-[2-(4-fluorophenyl)ethyl]-5-hydroxy-1H-pyrazol-3-yl]benzoate] | 13800 | 67800 | 90.6 | 39.2 | 67800 | 3.95E- 02 minutes | 1.63E- 02 | 90.6 | 39.2 | 
8 | Oc1c(CCN2CCOCC2)c(-c2ccc(C(F)(F)F)cc2)nn1-c1nc2ccccc2[nH]1 [Compound I-131, 1-(1H-1,3-benzodiazol-2-yl)-4-[2-(morpholin-4-yl)ethyl]-3-[4-(trifluoromethyl)phenyl]-1H-pyrazol-5-ol] | 1360 | 4930 | 96.4 | 14.2 | 4930 | 5.16E + 00 minutes | 1.06E- 02 | 96.4 | 14.2 | Kd (HIV-1 NefNL4-3; [2]): 17800 nM
9 | Oc1c(CC2CCOCC2)c(-c2ccc(F)cc2F)nn1-c1nc2ccccc2[nH]1 [Compound I-187, 1-(1H-1,3-benzodiazol-2-yl)-3-(2,4-difluorophenyl)-4-[(oxan-4-yl)methyl]-1H-pyrazol-5-ol] |  |  |  |  | 0.0307 | 1.02E + 06 minutes | 8.62E- 03 | 100 | 20.2 | 
10 | Cn1cccc(-c2nn(-c3nc4ccccc4[nH]3)c(O)c2CCc2ccc(F)cc2)c1=O [Compound I-127, 3-[1-(1H-1,3-benzodiazol-2-y1)-4-[2-(4-fluorophenyl)ethyl]-5-hydroxy-1H-pyrazol-3-yl]-1-methyl-1,2-dihydropyridin-2-one] |  |  |  |  |  |  |  |  |  | Kd (HIV-1 NefNL4-3; Table 1, 1:1 Langmuir fit where the KD2 cell says '1 to 1 fitting', else 2-site fit, read-out: Nef NL4-3 Binding, SPR 1:1 or 2-site fitting KD1): 2100 nM; Percent Viability @ 1 μM (TZM-bl cells) (TZM-bl cell line): 100.0%; HIV-1 Infectivity % Inhibition Norm. to Δ-Nef @ 1 μM (HIV-1NL4-3; Table 1, TZM-bl cells, 1 μM, 48 h, 100% = Nef-defective HIV-1): 2.4%
11 | CN(C)C(=O)N1CCC(c2nn(-c3nc4ccccc4[nH]3)c(O)c2CCC2CCOCC2)CC1 [Compound I-739, 4-[1-(1H-1,3-benzodiazol-2-yl)-5-hydroxy-4-[2-(oxan-4-yl)ethyl]-1H-pyrazol-3-yl]-N,N-dimethylpiperidine-1-carboxamide] |  |  | 100.0 | -7 |  |  |  |  |  | Nef NL4-3 Binding, SPR 1:1 or 2-site fitting KD1 (HIV-1 NefNL4-3; Table 1, 1:1 Langmuir fit where the KD2 cell says '1 to 1 fitting', else 2-site fit): No Interaction
12 | Oc1c(CC2CCOCC2)c(-c2ccc(F)c(F)c2)nn1-c1nc2ccccc2[nH]1 [Compound I-185, 1-(1H-1,3-benzodiazol-2-yl)-3-(3,4-difluorophenyl)-4-[(oxan-4-yl)methyl]-1H-pyrazol-5-ol] |  |  |  |  | 3400 | 1.04E + 01 minutes | 4.57E- 03 | 95.1 | 100 | 
13 | Oc1c(CCC2CCOCC2)c(-c2ccc(F)cc2)nn1-c1nc2ccccc2[nH]1 [Compound I-182, 1-(1H-1,3-benzodiazol-2-yl)-3-(4-fluorophenyl)-4-[2-(oxan-4-yl)ethyl]-1H-pyrazol-5-ol] |  |  |  |  | 4420 | 9.98E + 00 minutes | 1.11E- 02 | 90 | 100 | 
14 | Oc1c(CCC2CCOCC2)c(-c2ccc(C(F)(F)F)cc2)nn1-c1nc2ccccc2[nH]1 [Compound I-139, 1-(1H-1,3-benzodiazol-2-yl)-4-[2-(oxan-4-yl)ethyl]-3-[4-(trifluoromethyl)phenyl]-1H-pyrazol-5-ol] | 556 | 2070 | 80.8 | 44.1 | 2070 | 1.77E + 01 minutes | 3.41E- 03 | 80.8 | 44.1 | 
15 | Oc1c(CC2CCOCC2)c(C2CC2)nn1-c1cc(C(F)(F)F)n[nH]1 [Compound I-622, 3-cyclopropyl-4-[(oxan-4-yl)methyl]-5′-(trifluoromethyl)-2′H-[1,3′-bipyrazol]-5-ol] |  |  | 98.5 |  |  |  |  |  |  | Nef NL4-3 Binding, SPR 1:1 or 2-site fitting KD1 (HIV-1 NefNL4-3; Table 2, 1:1 Langmuir fit where the KD2 cell says '1 to 1 fitting', else 2-site fit): No interaction; inhibition at 1 µM (HIV-1NL4-3; 48 h, Table 2, TZM-bl cells, 1 μM, 48 h, 100% = Nef-defective HIV-1, read-out: HIV-1 Infectivity % Inhibition Norm. to Δ-Nef @ 1 μM): 4.9%
16 | Oc1c(CCc2ccc(F)cc2)c(CN2CCOCC2)nn1-c1nc2ccccc2[nH]1 [Compound I-157, 1-(1H-1,3-benzodiazol-2-yl)-4-[2-(4-fluorophenyl)ethyl]-3-[(morpholin-4-yl)methyl]-1H-pyrazol-5-ol] | 7800 |  | 100.7 | 13.2 |  |  |  |  |  | 
